Data set [1] concerns Sprague Dawley rats. Kind of data set: Rat intraplantar injection model, clinical observation score (Example 10). The data set is classed as in vivo, Sprague Dawley rat. The method, then: Male Sprague Dawley rats (n=56) were allocated into 7 groups of 8 animals per group. […] Each group was compared to the phosphate buffer (50-mM phosphate buffer with 50-mM sodium chloride at pH=7.4) treated group, which served as the control (Group 1).
Animals were administered 0.1 mL of test material by subcutaneous injection into the paw pad (Intraplantar injection) at time zero. Then, the animals were subsequently evaluated for their response to mechanical (von Frey filaments) and thermal stimuli, 15 and 90 minutes post-injection. The von Frey test was conducted prior to the thermal test, which followed immediately within minutes for each animal. In addition, clinical observation scoring of the animal's reaction to injection was conducted.
A clinical observation score was assigned by assessing for redness, swelling and paw placement.

The target in data set [2] is T1, IP1 receptor (Homo sapiens, UniProt P43119).
T1 construct: expressed in transfected cells
Briefly: cAMP assay (TR-FRET or HTRF kit, forskolin), Examples 5 and 6. The data set is classed as cell-based. The conditions noted are these: Table 3 (Example 5); read-out: EC50, IP receptor. The protocol:
(§1) [table] Prodrug XV (for structure see FIG. 10) as well as treprostinil were tested for 3 G-protein-coupled receptors (GPCRs), namely DP1, EP2, and IP, using cyclic adenosine monophosphate (cAMP) assay. Cyclic AMP assay kits: Multiscreen™ TR-FRET cAMP 1.0 No Wash Assay Kit (Multispan, Inc., Cat #MSCM01-25) and HTRF cAMP HiRange Kit (CisBio, Cat #62AM6PEC). Instruments: FlexStation III (Molecular Devices). Cyclic AMP (cAMP) Assay: cAMP assays were performed according to the manufacturer's protocol using Multiscreen™ TR-FRET cAMP 1.0 No Wash Assay Kit or HTRF cAMP HiRange Kit. […] The reaction was terminated by sequentially adding sequentially adding trFluor™ Eu-labeled cAMP and trFluor™ 650-labeled anti-cAMP antibody or D2-labeled cAMP and cryptate-labeled anti-cAMP antibody in lysis buffer. The plate was then incubated at room temperature for 60 minutes before reading fluorescent emissions at 620 nm and 665 or 668 nm with excitation at 314 nm on FlexStation III (Molecular Devices). Cyclic AMP (cAMP) assays: Cyclic AMP assay results are shown as “Ratio 665/620×10,000” (ratio of fluorescence at 665 nm and 620 nm×10,000) or “Ratio 668/620×10,000” (ratio of fluorescence at 668 nm and 620 nm×10,000). Data in graphs were represented in Mean±SD. Dose-dependent responses were fitted with sigmoidal dose-response curves allowing variable slopes using GraphPad Prism versions 4, 5 or 6 (Graphpad Prism). Treprostinil Prodrug XIV (for structure see FIG. 10) as well as treprostinil were tested for 3 G-protein-coupled receptors (GPCRs), namely DP1, EP2, and IP, using cyclin adenosine monophosphate (cAMP) assay. Cyclic AMP assay kits: Multiscreen™ TR-FRET cAMP 1.0 No Wash Assay Kit (Multispan, Inc., Cat #MSCM01-25) and HTRF cAMP HiRange Kit (CisBio, Cat #62AM6PEC). Cyclic AMP (cAMP) Assay: cAMP assays were performed according to the manufacturer's protocol using Multiscreen™ TR-FRET cAMP 1.0 No Wash Assay Kit or HTRF cAMP HiRange Kit. […] The reaction was terminated by sequentially adding sequentially adding trFluor™ Eu-labeled cAMP and trFluor™ 650-labeled anti-cAMP antibody or D2-labeled cAMP and cryptate-labeled anti-cAMP antibody in lysis buffer. The plate was then incubated at room temperature for 60 minutes before reading fluorescent emissions at 620 nm and 665 or 668 nm with excitation at 314 nm on FlexStation III (Molecular Devices). Cyclic AMP (cAMP) assays: Cyclic AMP assay results are shown as “Ratio 665/620×10,000” (ratio of fluorescence at 665 nm and 620 nm×10,000) or “Ratio 668/620×10,000” (ratio of fluorescence at 668 nm and 620 nm×10,000). Data in graphs were represented in Mean±SD. Dose-dependent responses were fitted with sigmoidal dose-response curves allowing variable slopes using GraphPad Prism versions 4, 5 or 6 (Graphpad Prism).

In data set [3] the target is T2, DP1 receptor (Homo sapiens, UniProt Q13258).
T2 construct: expressed in transfected cells
T2 sequence (Q13258 1-359): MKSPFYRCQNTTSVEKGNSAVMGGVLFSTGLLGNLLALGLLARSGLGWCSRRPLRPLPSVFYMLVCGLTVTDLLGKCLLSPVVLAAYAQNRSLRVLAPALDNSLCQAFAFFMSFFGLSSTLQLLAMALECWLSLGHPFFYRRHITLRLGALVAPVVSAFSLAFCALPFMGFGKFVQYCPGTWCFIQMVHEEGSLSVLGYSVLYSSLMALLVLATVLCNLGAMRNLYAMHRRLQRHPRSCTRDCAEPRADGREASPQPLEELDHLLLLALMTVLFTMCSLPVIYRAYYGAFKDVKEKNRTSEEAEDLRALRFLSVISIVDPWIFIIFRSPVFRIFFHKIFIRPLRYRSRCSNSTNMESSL
The description is as above. The data set is classed as cell-based. Particulars: Table 3 (Example 5); read-out: EC50, DP receptor. The protocol:
as §1

For data set [4], the target named is T3, EP2 receptor (Homo sapiens, UniProt P43116).
T3 construct: expressed in transfected cells
The description is as above. The data set is classed as cell-based. Particulars: Table 3 (Example 5); read-out: EC50, EP receptor. The method, then: as §1

Data set [5] has as its system rat. Kind of data set: Rat intraplantar injection model, mean clinical score (Example 11). The conditions noted are these: each of 15 min and 90 min.
Text: FIG. 31 presents mean clinical score of cycle 1 (points). Increased/Higher score indicates more observations of adverse events.
FIG. 32 presents mean clinical score of cycle 2 (points). Increased/Higher score indicates more observations of adverse events.
FIGS. 31 and 32 present mean clinical score for Cycles 1 and 2 respectively.
Data set [6] deals with T3, EP2 receptor. Kind of data set: cAMP assay (HTRF cAMP HiRange Kit), agonist mode, Example 4. The data set is classed as cell-based. Particulars: Table 2; HEK293T cells; read-out: Receptor activity EC50, EP receptor. The method, then:
Materials. […] Cyclic AMP assay kit: HTRF cAMP HiRange Kit (CisBio, Cat #62AM6PEC). Cyclic AMP (cAMP) Assay: cAMP assays were performed according to the manufacturer's protocol using CisBio's HTRF cAMP HiRange Kit. […] The reaction was terminated by sequentially adding D2-labeled cAMP and cryptate-labeled anti-cAMP antibody in lysis buffer. […] Data in graphs are represented in Mean±SD. Dose-dependent responses were fitted with sigmoidal dose-response curves allowing variable slopes using GraphPad Prism versions 4, 5 or 6 (Graphpad Prism).
Background: Cyclic AMP is a second messenger, typically raised through Gs and lowered through Gi signalling.

As a reminder, the EC50 is the concentration needed to bring the measured effect to its halfway point.

T3 sequence (P43116 whole entry): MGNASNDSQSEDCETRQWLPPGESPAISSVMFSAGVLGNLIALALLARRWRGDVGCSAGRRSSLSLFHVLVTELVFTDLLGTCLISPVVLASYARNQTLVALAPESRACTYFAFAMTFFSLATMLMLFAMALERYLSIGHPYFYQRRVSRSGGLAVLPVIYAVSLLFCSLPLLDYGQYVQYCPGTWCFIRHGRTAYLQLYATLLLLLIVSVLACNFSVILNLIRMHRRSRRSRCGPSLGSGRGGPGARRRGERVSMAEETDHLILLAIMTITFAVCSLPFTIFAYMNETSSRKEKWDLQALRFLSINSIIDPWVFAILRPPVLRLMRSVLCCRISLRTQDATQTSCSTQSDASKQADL
T1 sequence (P43119 whole entry): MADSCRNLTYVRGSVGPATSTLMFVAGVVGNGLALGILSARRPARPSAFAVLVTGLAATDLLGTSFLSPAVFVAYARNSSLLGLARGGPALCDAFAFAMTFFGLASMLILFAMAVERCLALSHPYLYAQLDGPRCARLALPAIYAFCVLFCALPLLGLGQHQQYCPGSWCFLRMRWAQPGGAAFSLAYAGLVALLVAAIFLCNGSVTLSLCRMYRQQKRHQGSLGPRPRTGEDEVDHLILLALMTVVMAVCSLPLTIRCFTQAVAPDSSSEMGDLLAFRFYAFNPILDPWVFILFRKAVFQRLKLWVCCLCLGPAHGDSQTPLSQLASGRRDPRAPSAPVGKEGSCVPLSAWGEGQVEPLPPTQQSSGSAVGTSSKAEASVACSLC

`CCCCC[C@H](O)CC[C@@H]1[C@H]2Cc3cccc(OCC(=O)O)c3C[C@H]2C[C@H]1O` [Treprostinil]: the mean clinical score entry in data set [1] (100 μg/mL, each of 15 min and 90 min) is “non-zero”. Also, in data set [1] (both doses, 90 minutes), the “clinical score vs phosphate buffer treated group (statistically significant increase)” value is reported as “same effect”. Further, the EC50 in data set [2] was 77.9 pM; in data set [3] it was 78 pM; in data set [4], 537 pM; in data set [6], 6750 pM. For the same compound, the “mean clinical score of cycle 2” value in data set [5] (1 μg/mL) is “non-zero”. Moreover, the “mean clinical score of cycle 1” value in data set [5] (100 μg/mL) is “non-zero”.

The values above are taken from patent US11672775B2, “Treprostinil prodrugs” (United Therapeutics Corporation, priority 2016, dated 2023).
